Patent US20170368082A1, “FORMULATIONS OF BRINCIDOFOVIR” (priority 2016, published 2017)
Read-outs that look alike come from different tables or passages of the source.

Test: Phase 2 toxicokinetics of brincidofovir and cidofovir in plasma
Format: in vivo, Sprague-Dawley CD rats
Conditions: plasma; for AUC(0-t) / Cmax / Tmax / concentration at 1 h / concentration at 2 h / concentration at 8 h / concentration at 24 h / concentration at 0 h: Sprague-Dawley CD, rat; for AUC(0-t) / Cmax / Tmax: iv, brincidofovir in plasma; for Tmax: read-out: Tmax; for concentration at 1 h / concentration at 2 h / concentration at 8 h / concentration at 24 h / concentration at 0 h: intravenous
Description: Plasma samples (108) were collected 2 hours following the initiation of dosing on Day 1 and Day 7 (Group 1), or at 1, 2, 8, and 24 hours following the initiation of dosing on Day 1, and prior to administration and at 2, 8, and 24 hours following the initiation of dosing on Day 7 (Groups 2 and 3), and analyzed to determine the concentrations of brincidofovir and the metabolite, cidofovir), by LC/MS/MS.
Approximately 0.4 mL of whole blood was obtained via the tail vein from each animal at each time point. Animals were not fasted prior to blood collection. Blood was collected into tubes containing K2EDTA anticoagulant and placed on wet ice in an upright position, per facility SOP prior to processing. Plasma was separated by centrifugation (10 minutes at approximately 2000 g, at approximately 2-8° C.). Approximately 0.10 mL of plasma was transferred into a single cryotube appropriately labeled with study number, animal number, time point, date of sampling and sample type. Remaining plasma was transferred into a second cryotube and retained as a backup sample. Plasma frozen at approximately −80±10° C. within approximately 2 hours after collection of each blood sample until analysis. Animals were euthanized (CO2 inhalation) after the final blood collection.
In general, TK parameters were estimated using mean plasma concentrations of brincidofovir and cidofovir derived from the composite blood sampling design using Phoenix WinNonLin (V 6.3).
A composite blood sampling design was used such that each rat was sampled twice per sampling day. Blood was collected via tail vein from unanesthetized animals into tubes containing anticoagulant and placed on wet ice in an upright position. Animals were not fasted prior to blood collection. Plasma was separated by centrifugation (for 10 minutes at approximately 2000 g, at approximately 2-8° C.), and transferred into individually labeled cryotubes. All cryotubes containing the collected plasma samples were appropriately labeled as to study number, animal number, time point, date of sampling and sample type. All plasma samples were obtained and frozen at approximately −80° C. (±10° C.) within approximately 2 hours after collection of each blood sample until analysis.
Rat plasma bioanalysis was conducted by Pyxant Laboratories. Plasma samples were analyzed for concentrations of brincidofovir and cidofovir using a method based upon protein precipitation extraction followed by LC-MS/MS analysis; calibration ranges for brincidofovir and cidofovir were 1.00-1500 ng/mL and 5.00-750 ng/mL, respectively, (Pyxant study number 3025) for a 50 μL aliquot of rat plasma. Sample analysis for ISR was not performed as part of this non-GLP study.
For the generation of Mean Profiles, all sample concentrations that were below the limit of quantitation (BLQ) were set to 0.
All pharmacokinetic parameter estimates were completed using a Non-Compartmental Model (Model 200-202 for IV infusion administration). The AUClast and AUCinf were calculated using the linear up log down trapezoidal rule.

[1] = female, 15 mg/kg, 15 mg/kg 2-hour IV infusion, Female rats, Day 1
[2] = female, 15 mg/kg, 15 mg/kg 2-hour IV infusion, Female rats, Day 7
[3] = male, 1 mg/kg, brincidofovir 1 mg/kg 2-h IV infusion, male rats, Day 1, BLQ imputed as zero, read-out: Imputed Concentration, Mean
[4] = male, 1 mg/kg, brincidofovir 1 mg/kg 2-h IV infusion, male rats, Day 1, BLQ imputed as zero, read-out: Imputed Concentration, individual animals
[5] = male, 1 mg/kg, 1 mg/kg 2-hour IV infusion, Male rats, Day 1
[6] = male, 1 mg/kg, 1 mg/kg 2-hour IV infusion, Male rats, Day 7
[7] = male, 15 mg/kg, 15 mg/kg 2-hour IV infusion, Male rats, Day 1
[8] = male, 15 mg/kg, 15 mg/kg 2-hour IV infusion, Male rats, Day 7

## CCCCCCCCCCCCCCCCOCCCOP(=O)(O)CO[C@H](CO)Cn1ccc(N)nc1=O [Brincidofovir]
[1]
  AUC(0-t): 7360 ng·h/mL
  Cmax: 3470 ng/mL
  Tmax: 1 h
[2]
  AUC(0-t): 3420 ng·h/mL
  Cmax: 1660 ng/mL
  Tmax: 2 h
[3]
  concentration at 1 h: 227 ng/mL
  concentration at 2 h: 235 ng/mL
[4]
  concentration at 1 h: 156 ng/mL
  concentration at 2 h: 220 ng/mL
male, 1 mg/kg, brincidofovir 1 mg/kg 2-h IV infusion, male rats, Day 1, 8 h, BLQ imputed as zero, read-out: Imputed Concentration, Mean
  concentration at 8 h: 0 ng/mL
male, 1 mg/kg, brincidofovir 1 mg/kg 2-h IV infusion, male rats, Day 1, 8 h, BLQ imputed as zero, read-out: Imputed Concentration, individual animals
  concentration at 8 h: 0 ng/mL
male, 1 mg/kg, brincidofovir 1 mg/kg 2-h IV infusion, male rats, Day 1, 24 h, BLQ imputed as zero, read-out: Imputed Concentration, Mean
  concentration at 24 h: 0 ng/mL
male, 1 mg/kg, brincidofovir 1 mg/kg 2-h IV infusion, male rats, Day 1, 24 h, BLQ imputed as zero, read-out: Imputed Concentration, individual animals
  concentration at 24 h: 0 ng/mL
male, 1 mg/kg, brincidofovir 1 mg/kg 2-h IV infusion, male rats, Day 7, 0 h, BLQ imputed as zero, read-out: Imputed Concentration, Mean
  concentration at 0 h: 0 ng/mL
male, 1 mg/kg, brincidofovir 1 mg/kg 2-h IV infusion, male rats, Day 7, 0 h, BLQ imputed as zero, read-out: Imputed Concentration, individual animals
  concentration at 0 h: 0 ng/mL
male, 15 mg/kg, brincidofovir 15 mg/kg, Male, Day 1, 24 h, read-out: brincidofovir Imputed Mean Concentration (IMC)
  concentration at 24 h: 1.22 ng/mL
male, 15 mg/kg, brincidofovir 15 mg/kg, Male, Day 1, 24 h, read-out: brincidofovir Mean Concentration (MC)
  concentration at 24 h: 1.22 ng/mL
male, 15 mg/kg, brincidofovir 15 mg/kg, Male, Day 7, 8 h, read-out: brincidofovir Imputed Mean Concentration (IMC)
  concentration at 8 h: 8.72 ng/mL
male, 15 mg/kg, brincidofovir 15 mg/kg, Male, Day 7, 24 h, read-out: brincidofovir Imputed Mean Concentration (IMC)
  concentration at 24 h: 1.45 ng/mL
male, 15 mg/kg, brincidofovir 15 mg/kg, Male, Day 7, 24 h, read-out: brincidofovir Mean Concentration (MC)
  concentration at 24 h: 1.45 ng/mL
male, 15 mg/kg, 15 mg/kg, male rats, Day 1, 8 h, read-out: C (Concentration), individual animals
  concentration at 8 h: 10.7 ng/mL
male, 15 mg/kg, 15 mg/kg, male rats, Day 1, 8 h, read-out: IC (Imputed Concentration), individual animals
  concentration at 8 h: 10.7 ng/mL
male, 15 mg/kg, 15 mg/kg, male rats, Day 1, 24 h, read-out: C (Concentration), individual animals
  concentration at 24 h: 1.2 ng/mL
male, 15 mg/kg, 15 mg/kg, male rats, Day 1, 24 h, read-out: IC (Imputed Concentration), individual animals
  concentration at 24 h: 1.2 ng/mL
male, 15 mg/kg, 15 mg/kg, male rats, Day 7, 8 h, read-out: C (Concentration), individual animals
  concentration at 8 h: 9.82 ng/mL
male, 15 mg/kg, 15 mg/kg, male rats, Day 7, 8 h, read-out: IC (Imputed Concentration), individual animals
  concentration at 8 h: 9.82 ng/mL
male, 15 mg/kg, 15 mg/kg, male rats, Day 7, 24 h, read-out: C (Concentration), individual animals
  concentration at 24 h: 1.85 ng/mL
male, 15 mg/kg, 15 mg/kg, male rats, Day 7, 24 h, read-out: IC (Imputed Concentration), individual animals
  concentration at 24 h: 1.85 ng/mL
[5]
  Cmax: 235 ng/mL
  Tmax: 2 h
[6]
  Cmax: 208 ng/mL
  Tmax: 2 h
[7]
  AUC(0-t): 8780 ng·h/mL
  Cmax: 4370 ng/mL
  Tmax: 1 h
[8]
  AUC(0-t): 4090 ng·h/mL
  Cmax: 1910 ng/mL
  Tmax: 2 h
1 mg/kg, female rats, Day 1, 8 h, listed as BCV, 1 mg/kg
  C (Concentration), individual animals: BLQ
1 mg/kg, female rats, Day 1, 24 h
  C (Concentration), individual animals: BLQ
1 mg/kg, female rats, Day 7, 0 h
  C (Concentration), individual animals: BLQ
1 mg/kg, female rats, Day 7, 8 h, listed as BCV, 1 mg/kg
  C (Concentration), individual animals: BLQ
1 mg/kg, female rats, Day 7, 24 h
  C (Concentration), individual animals: BLQ
1 mg/kg, male rats, Day 1, 8 h
  C (Concentration), individual animals: BLQ
1 mg/kg, male rats, Day 1, 24 h
  C (Concentration), individual animals: BLQ
1 mg/kg, male rats, Day 7, 0 h
  C (Concentration), individual animals: BLQ
1 mg/kg, male rats, Day 7, 8 h
  C (Concentration), individual animals: BLQ
1 mg/kg, male rats, Day 7, 24 h
  C (Concentration), individual animals: BLQ
15 mg/kg, female rats, Day 7, 0 h
  C (Concentration), individual animals: BLQ
